Eight compounds from PubChem BioAssay (NCI) can be followed below.

Some test systems named below: NCI-H23 lung; RPMI-8226 leukemia; UO-31 renal; SK-OV-3 ovarian; ACHN renal; OVCAR-5 ovarian; IGROV1 ovarian; SNB-19 CNS; 786-0 renal; SF-268 CNS.
Holding throughout (experiment): NCI-60 cell line screen, 48 h

Each structure is given as a SMILES string.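 In this assay, cells in 96-well plates receive the compound at five concentrations for 48 hours. Endpoints are linearly interpolated between the surrounding concentrations. GI50: concentration for 50% inhibition of growth. TGI is the concentration that stops growth completely.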 Bounds are passed on as bounds.

For `Cc1ccc(-c2nc(N)c(C#N)c3c2CCOc2c-3ccc3ccccc23)cc1`, the GI50 in the assay on NCI-H23 lung is 521 nM; in the assay with RPMI-8226 leukemia, 290 nM; in the assay on UO-31 renal, 4.14 µM; in the assay on SK-OV-3 ovarian, 3.42 µM; in the assay on ACHN renal it was 0.847 µM; in the assay with OVCAR-5 ovarian, 4.74 µM. Also, the GI50 was 0.359 µM in the assay with IGROV1 ovarian, 2.08 µM in the assay on SNB-19 CNS, 363 nM in the assay on 786-0 renal and 356 nM with SF-268 CNS. Further, the TGI is 66.7 µM in the assay with NCI-H23 lung; 2.26 µM in the assay with RPMI-8226 leukemia; over 100 µM in the assay on UO-31 renal; over 36.1 µM in the assay on ACHN renal; over 100 µM in the assay with OVCAR-5 ovarian; over 100 µM in the assay with IGROV1 ovarian. Besides, the TGI in the assay on SNB-19 CNS was over 100 µM; in the assay on 786-0 renal it was 12.7 µM; with SF-268 CNS it was 31.6 µM.

Take `COC(=O)CS(=O)c1ccccc1` (centres undefined): the TGI in the assay with NCI-H23 lung was over 100 µM; in the assay with RPMI-8226 leukemia it was 52.2 µM; in the assay with UO-31 renal, 22.1 µM; in the assay on SK-OV-3 ovarian it was over 100 µM; in the assay on ACHN renal it was over 100 µM; in the assay with OVCAR-5 ovarian it was over 100 µM. Further, the TGI with IGROV1 ovarian was 54 µM; in the assay on SNB-19 CNS it was over 100 µM; in the assay with 786-0 renal it was 72.4 µM; in the assay with SF-268 CNS, 91.6 µM.

In the case of `CCn1c(-c2nonc2N)nc2cncc(C(=O)NCCNC)c21`, the GI50 with NCI-H23 lung was 9320 nM; in the assay on RPMI-8226 leukemia, over 25000 nM; in the assay on UO-31 renal, 0.684 µM; with SK-OV-3 ovarian, 17.3 µM; in the assay with ACHN renal, 11.2 µM; in the assay on OVCAR-5 ovarian, 0.441 µM. For the same compound, the GI50 is 4.87 µM with IGROV1 ovarian, over 25 µM in the assay with SNB-19 CNS, 12100 nM in the assay on 786-0 renal and 7780 nM in the assay on SF-268 CNS. Besides, the TGI is over 25 µM in the assay on NCI-H23 lung; over 25 µM in the assay with RPMI-8226 leukemia; 5.77 µM in the assay on UO-31 renal; over 25 µM in the assay on SK-OV-3 ovarian; over 25 µM in the assay on ACHN renal; over 25 µM in the assay on OVCAR-5 ovarian. For the same compound, the TGI in the assay on IGROV1 ovarian is over 22.6 µM; in the assay on SNB-19 CNS it was over 25 µM; with 786-0 renal, over 25 µM; in the assay with SF-268 CNS, over 25 µM.

As to `CCC[CH2][Sn]1([CH2]CCC)[O]CC(CN2CCOCC2)[O]1` (centres undefined), the GI50 in the assay with NCI-H23 lung is 2410 nM; in the assay on RPMI-8226 leukemia, 1440 nM; in the assay with UO-31 renal, 10.1 µM; in the assay with SK-OV-3 ovarian it was 12.3 µM; with ACHN renal it was 3.02 µM; with OVCAR-5 ovarian, 18.8 µM. The GI50 is 12.1 µM with IGROV1 ovarian, 7.65 µM in the assay on SNB-19 CNS, 2630 nM with 786-0 renal and 1790 nM with SF-268 CNS. The TGI came out at 6.13 µM in the assay on NCI-H23 lung; 4.7 µM in the assay with RPMI-8226 leukemia; 21.7 µM in the assay with UO-31 renal; 25.8 µM in the assay on SK-OV-3 ovarian; 9.61 µM in the assay with ACHN renal; 32.8 µM in the assay on OVCAR-5 ovarian. Moreover, the TGI was found to be 26.1 µM in the assay on IGROV1 ovarian, 19.6 µM in the assay with SNB-19 CNS, 7.39 µM with 786-0 renal and 5.52 µM in the assay with SF-268 CNS.

In the case of `CC1(C)N=C(N)N=C(N)N1c1cccc(CCCCOc2ccccc2)c1`, the GI50 is 66.4 nM in the assay with NCI-H23 lung; 60.1 nM in the assay with RPMI-8226 leukemia; 47.2 µM with UO-31 renal; 1.91 µM with SK-OV-3 ovarian; 3.85 µM in the assay with ACHN renal; under 0.0335 µM in the assay with OVCAR-5 ovarian. Besides, the GI50 with IGROV1 ovarian was under 0.0118 µM; in the assay with SNB-19 CNS, 0.326 µM; in the assay with 786-0 renal it was 142 nM; with SF-268 CNS, 55.8 nM. For the same compound, the TGI is 81.4 µM in the assay on NCI-H23 lung; 13.6 µM with RPMI-8226 leukemia; over 100 µM in the assay with UO-31 renal; over 100 µM in the assay on SK-OV-3 ovarian; over 100 µM in the assay on ACHN renal; over 100 µM in the assay on OVCAR-5 ovarian. Besides, the TGI in the assay on IGROV1 ovarian was 15.7 µM; with SNB-19 CNS, over 77.4 µM; with 786-0 renal, over 100 µM; with SF-268 CNS, 22.9 µM.

On to `CC1OC(n2c3ccccc3c3c4c(c5c6ccccc6[nH]c5c32)C(=O)N(CCN2CCOCC2)C4=O)CC(O)C1O` (centres undefined), for which the GI50 in the assay on NCI-H23 lung is 2000 nM; in the assay on RPMI-8226 leukemia, 2970 nM; in the assay with UO-31 renal, 1.96 µM; in the assay with SK-OV-3 ovarian, 2.29 µM; in the assay with ACHN renal, 1.51 µM; in the assay with OVCAR-5 ovarian it was 5.36 µM. Also, the GI50 with IGROV1 ovarian is 3.67 µM; in the assay with SNB-19 CNS, 2.18 µM; in the assay with 786-0 renal, 1490 nM; in the assay on SF-268 CNS it was 1660 nM. For the same compound, the TGI amounted to 11.1 µM with NCI-H23 lung; 20.7 µM in the assay on RPMI-8226 leukemia; 10.8 µM in the assay with UO-31 renal; 9.77 µM in the assay with SK-OV-3 ovarian; 6.74 µM with ACHN renal; 12.9 µM in the assay on OVCAR-5 ovarian. Further, the TGI amounted to 16 µM with IGROV1 ovarian, 17.8 µM with SNB-19 CNS, 6.53 µM with 786-0 renal and 9.65 µM with SF-268 CNS.

As for `N#C/C(=C1C=C/C(=N\O)C(Cl)=C\1)c1ccccc1`, the GI50 was 5610 nM with NCI-H23 lung; 451 nM in the assay on RPMI-8226 leukemia; 1.74 µM in the assay with UO-31 renal; 3.77 µM in the assay on SK-OV-3 ovarian; 0.733 µM in the assay with ACHN renal; 3.71 µM with OVCAR-5 ovarian. The GI50 in the assay with IGROV1 ovarian is 4.26 µM; in the assay with SNB-19 CNS, 22.1 µM; in the assay on 786-0 renal, 745 nM; in the assay on SF-268 CNS, 2190 nM. Also, the TGI in the assay with NCI-H23 lung was determined as 65.6 µM; in the assay with RPMI-8226 leukemia, 4.41 µM; in the assay with UO-31 renal it was 17.1 µM; in the assay on SK-OV-3 ovarian, 14.4 µM; in the assay on ACHN renal, 11.6 µM; in the assay with OVCAR-5 ovarian, 13.7 µM. Also, the TGI with IGROV1 ovarian is 23.7 µM; with SNB-19 CNS, over 100 µM; with 786-0 renal, 11.9 µM; in the assay with SF-268 CNS it was 14.3 µM.

Take `CC(=O)OC1Oc2cc(C)c(C)cc2-c2oc(=O)c(-c3ccc(F)cc3)cc21` (centres undefined): the GI50 is 4410 nM in the assay with NCI-H23 lung; 2520 nM with RPMI-8226 leukemia; 4.92 µM in the assay with UO-31 renal; 4.38 µM with SK-OV-3 ovarian; 11.9 µM with ACHN renal; 6.3 µM in the assay on OVCAR-5 ovarian. The GI50 with IGROV1 ovarian was 7.94 µM; with SNB-19 CNS, 11.6 µM; with 786-0 renal, 9550 nM; in the assay with SF-268 CNS it was 9320 nM. Also, the TGI in the assay on NCI-H23 lung is 42.7 µM; in the assay on RPMI-8226 leukemia, 9.04 µM; with UO-31 renal, over 100 µM; in the assay on SK-OV-3 ovarian it was 54 µM; with ACHN renal, over 100 µM; in the assay on OVCAR-5 ovarian, over 100 µM. Also, the TGI with IGROV1 ovarian is 85.2 µM; in the assay on SNB-19 CNS, over 100 µM; with 786-0 renal, over 100 µM; in the assay on SF-268 CNS, over 100 µM.
